Tests used:
Assay type in all cases: binding
GCGR = target: T1, GCGR (Homo sapiens, UniProt P47871); experiment: NanoBRET screen HiBiT-GCGR in HEK293; conditions: GCGR
T1 construct: purchased Promega (in-house HiBiT-GPCR construct library, NanoBRET)
Description: (§1) Each tracer candidate was screened across the entire library of HiBiT-GPCR constructs using NanoBRET as the detection modality. As depicted in Figure 4A, the specificity of interactions was evaluated through decrease in BRET due to competitive displacement of a bound tracer by excess parental compound. Each tracer was analyzed for binding to each HiBiT-GPCR fusion in the absence and in the presence of competing parental compound. Briefly, HEK293 cells were transfected with HiBiT-GPCR constructs diluted into promoterless DNA to reduce expression and maximize translocation to the cell surface. Each tracer candidate was then screened at concentrations of 1 μM and 0.1 μM across cells expressing these fusions. Cells were treated for 1.5 h with tracer either alone or in the presence of 20 μM competing parental compound (i.e., control). BRET was measured upon addition of purified LgBiT and subsequent complementation with HiBiT genetically fused to a GPCR. The specificity of interactions was assessed through a decrease in BRET signal due to competitive displacement of the bound tracer. To further gauge the robustness of these interactions, the fold response over the control (i.e., BRETtracer/BRETcontrol) was calculated. We chose a 1.5-fold response, which translates to ≥7-fold signal over noise as the minimal threshold required to score an interaction as positive. […]. Below we highlight the screening results obtained for our exemplary fluorescent tracers based on Clozapine, Amitriptyline and AZD1283.
(§2) HiBiT-GPCR DNA constructs were diluted in 10 mM Tris pH 8 to a final concentration of 0.01 μg/μL, arrayed in 96-well plates and stored at −20 °C. For transfection, HEK293 cells were suspended in Opti-MEM (without phenol red) supplemented with 2% fetal bovine serum (Seradigm) and 100 units/mL penicillin–streptomycin (Gibco) at a final concentration of 220,000 cells/mL and dispensed into white 96-well plates at 90 μL/well. Subsequent transfections and screens were carried using an Agilent Bravo Automated Liquid Handling Platform. First, the 96-well HiBiT DNA arrays were diluted 25-fold in Opti-MEM (without serum or phenol red) to a final concentration of 0.0004 μg/μL and 20 μL of the diluted DNAs were transferred into new 96-well plates. Next, promoterless carrier DNA (1 μg/μL) was diluted 25-fold (0.04 μg/μL) and then dispensed into the diluted arrays at 20 μL/well. Following brief mixing, Viafect transfection reagent (Promega) diluted 16-fold into Opti-MEM was dispensed into the plates at 40 μL/well. After mixing by pipetting, plates were incubated for 10 min on the pipetting station deck. The DNA-transfection reagent complexes were then added to plates containing cells. To facilitate the screen, 10 μL of DNA-transfection reagent complexes were added in duplicates to the top 4 and bottom 4 rows, resulting in two identical 48-well arrays per plate. Plates with transfected cells were incubated for 18–20 h at 37 °C/5% CO2. A screen of each tracer across the entire library using two different concentrations requires duplicate plates of transfected cells. Depending on the number of tracers being screened, transfections can be scaled up using the same ratios. The next day, for each tracer, four 20× screening solutions in tracer dilution buffer (Promega) were prepared: two duplicates at final concentration of 20 μM and two duplicates at a final concentration of 2 μM. A competing unmodified compound was added to one of each duplicate at a final concentration of 400 μM. The four resulting solutions were diluted 4-fold in Opti-MEM without serum or phenol red to generate 5× solutions (5 µM and 0.5 µM tracer +/− 100 μM competing compound). To screen the library, a BioTek MultiFlo FX liquid dispenser was used to dispense 22.5 µL of tracer solution to the top 4 rows and 22.5 µL tracer + competing compound solution to the 4 bottom rows. Plates were briefly mixed on an orbital shaker and incubated for 1.5 h at room temperature. […]

OXER1 = target: T2, OXER1 (Homo sapiens, UniProt Q8TDS5); experiment: NanoBRET screen HiBiT-OXER1 in HEK293
T2 construct: purchased Promega (in-house HiBiT-GPCR construct library, NanoBRET)
Description: as §1, §2

XCR1 = target: T3, XCR1 (Homo sapiens, UniProt P46094); experiment: NanoBRET screen HiBiT-XCR1 in HEK293
T3 construct: purchased Promega (in-house HiBiT-GPCR construct library, NanoBRET)
T3 sequence (P46094 1-333): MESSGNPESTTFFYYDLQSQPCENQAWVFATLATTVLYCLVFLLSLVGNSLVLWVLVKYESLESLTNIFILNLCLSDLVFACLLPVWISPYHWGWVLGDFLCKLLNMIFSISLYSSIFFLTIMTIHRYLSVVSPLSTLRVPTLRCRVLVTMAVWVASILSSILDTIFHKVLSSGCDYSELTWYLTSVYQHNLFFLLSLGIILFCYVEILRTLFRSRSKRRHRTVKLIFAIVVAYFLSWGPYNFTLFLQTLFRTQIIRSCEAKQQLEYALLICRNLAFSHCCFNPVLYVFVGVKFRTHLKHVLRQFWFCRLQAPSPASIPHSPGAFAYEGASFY
Description: as §1, §2

T2 sequence (Q8TDS5 whole entry): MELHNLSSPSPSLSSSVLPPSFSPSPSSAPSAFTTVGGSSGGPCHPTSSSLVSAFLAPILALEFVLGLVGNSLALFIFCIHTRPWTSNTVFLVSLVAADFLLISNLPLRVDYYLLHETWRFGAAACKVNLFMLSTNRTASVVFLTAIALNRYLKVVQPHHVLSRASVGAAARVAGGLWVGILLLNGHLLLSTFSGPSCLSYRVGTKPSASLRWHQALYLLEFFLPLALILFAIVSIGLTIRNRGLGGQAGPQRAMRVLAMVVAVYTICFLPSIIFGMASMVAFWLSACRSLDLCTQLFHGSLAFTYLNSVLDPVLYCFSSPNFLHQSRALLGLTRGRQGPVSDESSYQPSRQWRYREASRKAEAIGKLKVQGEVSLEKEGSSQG
T1 sequence (P47871 26-477): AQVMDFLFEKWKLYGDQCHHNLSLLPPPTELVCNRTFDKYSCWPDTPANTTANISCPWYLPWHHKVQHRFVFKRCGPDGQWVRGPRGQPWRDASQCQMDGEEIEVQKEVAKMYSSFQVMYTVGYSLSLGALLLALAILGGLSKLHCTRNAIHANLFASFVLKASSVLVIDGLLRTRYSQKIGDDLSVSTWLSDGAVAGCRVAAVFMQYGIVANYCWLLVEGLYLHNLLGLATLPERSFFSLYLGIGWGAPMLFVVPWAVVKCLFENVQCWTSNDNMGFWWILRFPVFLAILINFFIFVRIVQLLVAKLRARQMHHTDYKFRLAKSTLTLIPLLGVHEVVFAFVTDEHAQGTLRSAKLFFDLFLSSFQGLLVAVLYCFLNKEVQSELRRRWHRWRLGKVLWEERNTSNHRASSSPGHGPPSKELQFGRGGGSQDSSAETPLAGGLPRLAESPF

CN1CCN(C2=Nc3cc(Cl)ccc3Nc3ccc(CNC(=O)CCOCCOCCOCCOCCNC(=O)CCc4ccc5n4[B-](F)(F)[N+]4=C(c6ccc[nH]6)C=CC4=C5)cc32)CC1 [Clozapine-b-2-NB590]
NanoBRET Fold Response (GCGR; 0.1μM tracer): 1.02 | NanoBRET Fold Response (GCGR; 1μM tracer): 1.04 | NanoBRET Fold Response (OXER1; OXER1, 0.1μM tracer): 0.97 | NanoBRET Fold Response (OXER1; OXER1, 1μM tracer): 0.95 | NanoBRET Fold Response (XCR1; XCR1, 0.1μM tracer): 0.94 | NanoBRET Fold Response (XCR1; XCR1, 1μM tracer): 1.18

CN(C)CCC=C1c2ccccc2CCc2ccc(C(=O)NCCNC(=O)CCOCCOCCOCCOCCNC(=O)CCc3ccc4n3[B-](F)(F)[N+]3=C(c5ccc[nH]5)C=CC3=C4)cc21 [Amitriptyline-b-2-NB590]
NanoBRET Fold Response (GCGR; tracer 0.1μM): 0.91 | NanoBRET Fold Response (GCGR; tracer 1μM): 1.03 | NanoBRET Fold Response (OXER1; tracer at 0.1μM): 1.08 | NanoBRET Fold Response (OXER1; tracer at 1μM): 0.97 | NanoBRET Fold Response (XCR1; tracer at 0.1μM, listed as amitriptyline-b-2-NB590): 0.92 | NanoBRET Fold Response (XCR1; tracer at 1μM, listed as amitriptyline-b-2-NB590): 0.83

CCOC(=O)c1cc(C#N)c(N2CCC(C(=O)NS(=O)(=O)Cc3ccccc3/C=C/C(=O)NCCNC(=O)CCc3ccc4n3[B-](F)(F)[N+]3=C(c5ccc[nH]5)C=CC3=C4)CC2)nc1C [AZD1283-1-NB590]
NanoBRET Fold Response (GCGR; 0.1μM): 1.05 | NanoBRET Fold Response (GCGR; 1μM): 1.12 | NanoBRET Fold Response (OXER1; OXER1, 0.1μM): 0.50 | NanoBRET Fold Response (OXER1; OXER1, 1μM): 1.03 | NanoBRET Fold Response (XCR1; XCR1, 0.1μM): 1.04 | NanoBRET Fold Response (XCR1; XCR1, 1μM): 1.00

CC(C)N(CC[C@H](c1ccccc1)c1cc(CCNC(=O)CCOCCOCCOCCOCCNC(=O)CCc2ccc3n2[B-](F)(F)[N+]2=C(c4ccc[nH]4)C=CC2=C3)ccc1O)C(C)C [Tolterodine-2-NB590]
NanoBRET Fold Response (GCGR; tracer 0.1μM): 1.32 | NanoBRET Fold Response (GCGR; tracer 1μM): 1.04 | NanoBRET Fold Response (OXER1; OXER1, tracer 0.1μM): 0.73 | NanoBRET Fold Response (OXER1; OXER1, tracer 1μM): 1.09 | NanoBRET Fold Response (XCR1; XCR1, tracer 0.1μM): 0.81 | NanoBRET Fold Response (XCR1; XCR1, tracer 1μM): 1.17

CC(C)N(CC[C@H](c1ccccc1)c1cc(CCNC(=O)c2ccc(CNC(=O)CCc3ccc4n3[B-](F)(F)[N+]3=C(c5ccc[nH]5)C=CC3=C4)cc2)ccc1O)C(C)C [Tolterodine-BZ-NB590]
NanoBRET Fold Response (GCGR; tracer 0.1μM): 0.82 | NanoBRET Fold Response (GCGR; tracer 1μM): 1.00 | NanoBRET Fold Response (OXER1; OXER1, tracer 0.1μM): 1.00 | NanoBRET Fold Response (OXER1; OXER1, tracer 1μM): 1.06 | NanoBRET Fold Response (XCR1; XCR1, tracer 0.1μM): 0.80 | NanoBRET Fold Response (XCR1; XCR1, tracer 1μM): 0.95

O=C(CCOCCOCCOCCOCCNC(=O)CCc1ccc2n1[B-](F)(F)[N+]1=C(c3ccc[nH]3)C=CC1=C2)NCCCN1CCN(C2=Nc3ccccc3Oc3ccc(Cl)cc32)CC1 [Loxapine-a-2-NB590]
NanoBRET Fold Response (GCGR; tracer 0.1μM): 1.05 | NanoBRET Fold Response (GCGR; tracer 1μM): 1.24 | NanoBRET Fold Response (OXER1; OXER1, tracer 0.1μM): 0.93 | NanoBRET Fold Response (OXER1; OXER1, tracer 1μM): 1.09 | NanoBRET Fold Response (XCR1; XCR1, tracer 0.1μM): 0.44 | NanoBRET Fold Response (XCR1; XCR1, tracer 1μM): 0.91

CN1CCN(C2=Nc3cc(Cl)ccc3N(CC(=O)NCCOCCOCCOCCOCCNC(=O)CCc3ccc4n3[B-](F)(F)[N+]3=C(c5ccc[nH]5)C=CC3=C4)c3ccccc32)CC1 [Clozapine-c-2-NB590]
NanoBRET Fold Response (GCGR; 0.1μM tracer): 0.99 | NanoBRET Fold Response (GCGR; 1μM tracer): 1.02 | NanoBRET Fold Response (OXER1; OXER1, 0.1μM tracer): 1.00 | NanoBRET Fold Response (OXER1; OXER1, 1μM tracer): 0.94 | NanoBRET Fold Response (XCR1; XCR1, 0.1μM tracer): 0.99 | NanoBRET Fold Response (XCR1; XCR1, 1μM tracer): 1.03

CN(C)CCC=C1c2ccccc2CCc2ccc(C(=O)NCCNC(=O)CCOCCOCCOCCOCCNC(=O)CCc3ccc4n3[B-](F)(F)[N+]3=C(c5ccc[nH]5)C=CC3=C4)cc21 [Amitriptyline-a-2-NB590]
NanoBRET Fold Response (XCR1; tracer at 0.1μM): 1.05 | NanoBRET Fold Response (XCR1; tracer at 1μM): 0.96

— paper PMC8151276, “An Integrated Approach toward NanoBRET Tracers for Analysis of GPCR Ligand Engagement” (Molecules, 2021)
